Measurements taken from US20240173320A1, “METHODS OF USING EHMT2 INHIBITORS IN IMMUNOTHERAPIES” (Epizyme, Inc., priority 2017, published 2024).
Entries after “also recorded” stand apart in the source; their conditions may differ.

How the values were obtained:
[1] = system: naive CD4 T cells isolated from human PBMCs; test: Th17 cell polarization of naive CD4 T cells, flow cytometry for IL-17 and IFNγ; type: cell-based; conditions: for percentage of polarized Th17 cells: naive cells from human PBMCs, Th17 polarizing cytokines, 11 days, IL-17 and IFNγ by flow cytometry (Example 2, FIGS. 1B, 2)
Method: (§1) To evaluate the effects of Compounds on T regulatory (Treg) and Th17 cell polarization, naive CD4 T cells were isolated from human peripheral blood mononuclear cells (PBMCs) using magnetic bead separation and cultured with or without compound in the presence of Treg or Th17 polarizing cytokines. For Treg polarization, naive cells were cultured for five days with anti-CD3, anti-CD28, TL-2 and TGFβ. After five days, the cells were then evaluated for CD25 and Foxp3 expression by flow cytometry. For Th17 polarization, naive cells were cultured for 10-11 days with anti-CD3, anti-CD28, […], IL-6, IL-23, TGFβ, anti-IFNγ antibody and anti-IL-4 antibody. After 10-11 days cells were stimulated and then evaluated for IL-17 and IFNγ by flow cytometry.
To evaluate the effects of Compounds 205 and 571 on Th17 cell polarization, naive cells were isolated from human peripheral blood mononuclear cells (PBMCs), stimulated with coated CD3 antibody and soluble CD28 antibody, and cultured with or without compound in the presence of Th17 polarizing cytokines for 11 days as described in [0601]. Compound was replenished at either day three or day four. After 11 days of treatment, cells were stimulated with PMA, ionomycin, brefeldin A and monensin, and then evaluated for IL-17 and IFNγ by flow cytometry.
(§2) Naive CD4 T cells were isolated from healthy donor PBMCs using magnetic bead separation and were incubated with cytokine cocktail to promote polarization to Th17 cells, as described in [0601]. Cells were simultaneously treated with various concentrations of G9a inhibitors, with compound replenishment occurring at day three or four. Polarization to Th17 cells was assessed by flow cytometry using IL-17A and IFNy. Methyl mark (H3K9me2) was also assessed by flow cytometry.

H3K9me2 [2] = test: Methyl mark (H3K9me2) by flow cytometry under Treg polarizing conditions; type: cell-based, human; conditions: naive CD4 T cells from healthy donor PBMCs, six days, flow cytometry (Example 3, FIGS. 3, 4A-4B)
Method: (§3) Naive CD4 T cells were isolated from healthy donor PBMCs using magnetic bead separation and were incubated for six days with cytokine cocktail to promote polarization to T regulatory cells, as described in [0601]. Cells were simultaneously treated with various concentrations of G9a inhibitors, with compound replenishment occurring at either day three or day four. Polarization to T regulatory cells was assessed by flow cytometry using Foxp3 and CD25. Methyl mark (H3K9me2) was also assessed by flow cytometry.

[3] = system: naive CD4 T cells isolated from human PBMCs; test: T regulatory (Treg) cell polarization of naive CD4 T cells, flow cytometry for CD25 and Foxp3; type: cell-based; conditions: for Treg polarization: naive CD4 T cells from healthy donor PBMCs, six days, Foxp3 and CD25 by flow cytometry (Example 3, FIGS. 3, 4A-4B)
Method: as §1
To evaluate the effects of Compound 571 on Treg cell polarization, naive cells were isolated from human peripheral blood mononuclear cells (PBMCs), stimulated with coated CD3 antibody and soluble CD28 antibody, and cultured with or without compound in the presence of Treg polarizing cytokines for five days, as described in [0601]. Compound was replenished at either day three or day four.
as §3

H3K9me2 [4] = test: Methyl mark (H3K9me2) by flow cytometry under Th17 polarizing conditions; type: cell-based, human; conditions: naive CD4 T cells from healthy donor PBMCs, flow cytometry (Example 4, FIGS. 5, 6A-6B)
Method: as §2

Row | Structure (SMILES) | Th17 polarization ([1]; naive CD4 T cells from healthy donor PBMCs, IL-17A and IFNγ by flow cytometry (Example 4, FIG. 5)) | H3K9me2 (methyl mark) under Treg polarization (H3K9me2 [2]) | Treg polarization [3] | H3K9me2 (methyl mark) under Th17 polarization (H3K9me2 [4]) | percentage of polarized Th17 cells [1] | polarized Treg cells ([3]; naive cells from human PBMCs, Treg polarizing cytokines, five days (Example 2, FIG. 1A))
1 | CNCc1cnn(-c2cc(Nc3nc(C)cc(NC)n3)ccc2OC)c1 [Compound D6] | dose-dependent increase | dose-dependent decrease; also recorded: decreased | dose-dependent increase; also recorded: increased | dose-dependent decrease; also recorded: decreased |  | 
2 | CNC1=Nc2cc(C#CCN3CCCCC3)c(OC)cc2C12CCC2 [Compound A75] |  | decreased | increased | decreased |  | 
3 | CCN1CC[C@@H](COc2cc(Nc3nc(C)cc(NC)n3)ccc2OC)C1 [Compound 571] |  |  |  |  | dose-dependent increase | anin polarized Treg cells
4 | CNc1cc(C)nc(Nc2ccc(OC)c(OCCCN3CCCC3)c2)n1 [Compound 205] |  | decreased | increased | decreased | dose-dependent increase | 
